System: passive cutaneous anaphylaxis (PCA)
Test: Passive Cutaneous Anaphylaxis (PCA)
Type: in vivo, Male Wistar rats
Settings: rat, i.v., carrier PBS with NaHCO3, time 0 mins before antigen challenge
Protocol: Passive Cutaneous Anaphylaxis (PCA)
Serum containing heat labile homocytotropic antibody was raised in rats to crystallized ovalbumin XOA by the method of Mota (I. Mota, Immunology, 7,681 [1964] using Bordettela pertussis vaccine as adjuvant.
Passive cutaneous anaphylaxis (PCA) was carried out by a method based on that of Ovary and Bier, (A. Ovary and O. G. Bier, Proc. Soc. Exp. Biol. Med. 81, 584, [1952]) as modified by Goose and Blair. (Immunology 16, 749 [1969]).
Male Wistar rats of 250-300 g. were given 0.1 ml. of each of six twofold serial dilutions of pooled antiserum in 0.9% saline injected intradermally into separate sites on their shaved backs. Later (72 hrs.) the animals were challenged by intravenous injection of 0.3 ml. of a 1% solution of ovalbumin in an isotonic solution of saline buffered with 0.05 M, pH 7.2, Sorenson Buffer (PBS), mixed with 0.2 ml. of a 5% solution of Pontamine Sky Blue (6BX C.I. 24410, Raymond A. Lamb, London) in isotonic saline. The rats were killed after 20 min and the diameter of the blue wheals at the antibody injection sites was measured on the outer surface of the skin. The starting dilution of the serum was adjusted so that there was no response, after challenge, at the injection site of the highest dilution and a maximum response at the lowest dilutions. Typically six twofold serial dilutions of the serum from 1/4 to 1/128 were used.
Compounds were tested for their ability to reduce the diameter of the wheals at those intradermal sites which in control animals gave less than maximum response. Each dose of the compound was administered to six rats at a measured time prior to intravenous challenge with ovalbumin. Control groups of six rats were given the same volume (0.2 ml/100 g) of carrier fluid at the same time prior to the challenge.
The results were calculated as follows. % inhibition of PCA=100 (1-a/b) where a=the sum of the diameters of the wheals produced in the test animal at the sites of antibody dilutions as used in control groups and b=the mean sum of the diameters of the wheals produced in the control group of animals at those antibody sites where at least five out of six of the animals gave less than maximum response. A typical variation in the control group of animals was SEM± 6%.

SMILES	% Inhib PCA (2 mg/kg) [%]	% Inhib PCA (4 mg/kg) [%]	% Inhib PCA (10 mg/kg) [%]	% Inhib PCA (5 mg/kg) [%]	% Inhib PCA (20 mg/kg) [%]
O=c1c2ccccc2[nH]c2nn[nH]c12 [Example 1, 4,9-Dihydro-9-oxo-1H-triazolo[4,5-b] quinoline]	14	22	79	–	–
O=c1c2cc(Cl)ccc2[nH]c2nn[nH]c12 [Example 3, 7-Chloro-4,9-dihydro-9-oxo-1H-triazolo[4,5-b] quinoline]	–	–	–	36	70
Cc1ccc2[nH]c3nn[nH]c3c(=O)c2c1 [Example 2, 4,9-dihydro-7-methyl-9-oxo-1H-triazolo[4,5-b] quinoline]	–	–	65	16	–

Source: US4223032A, “Triazolo [4,5-b] quinolines and prophylaxis of allergic diseases with them” (Beecham Group Limited, priority 1977, dated 1980)
